Assay results taken from patent US20190016747A1, “PURIFIED REBAUDIOSIDE A” (SGF Holdings, LLC, priority 2004, published 2019).
Read-outs that look alike come from different tables or passages of the source.

Test: Solubility in water by incremental addition of water until complete solubilization
Format: physicochemical
Conditions: for % Solubility (solids (g)/ final volume (ml)): in water at room temperature, Example 4 samples
Protocol: In Example 4, RA89.95 Stevia starting material was processed through two reflux stages of the industrial embodiment of the invention, and a sample of the final product of the industrial process used as starting material in a stirred wash stage of the laboratory embodiment of the invention. Specifically, 100 kilograms of RA90 Stevia starting material were mixed with 400 liters of 90Et/10W solvent (this experiment was conducted while the starting material assay was still being perfected) and refluxed for 1 hour at 80° C., then cooled (chilled water in tank jacket) and allowed to stand for a minimum of 2 hours with mixture temperature maintained between 4° C. and 20° C. The mixture was filtered through a centrifugal decanter, and the retentate added to 400 liters of 90Et/10W solvent and refluxed for 1 hour at 80° C. The mixture from the second reflux was filtered through a centrifugal decanter. The retentate of the filtering of the second reflux mixture was mixed with water until the volume of the mixture was approximately twice the mass of the retentate (e.g., 350 kg retentate in a total mixture volume of 700 liters). The mixture in water was heated to 80° C. for approximately one hour to purge any residual ethanol from the mixture, then the mixture was spray-dried. There was no reflux in absolute ethanol prior to spray drying. The spray-dried product was weighed and a 0.1 gram sample was analyzed for rebaudioside A content using the HPLC Method described above. Five grams of the spray-dried material was mixed with 20 mls of absolute ethanol in a 100 ml round-bottomed flask and refluxed for 1 hour at 80° C. (“refluxed sample”) and then allowed to cool to room temperature. A second 5 gram sample of the spray-dried material was mixed with 20 mls of absolute ethanol and stirred for 15 minutes at room temperature (“stirred sample”). Both samples were filtered over a Whatman GF/A glass fiber filter (1.6 μm pore size) and the retained solids of both samples were dried in a blower oven at 80° C. until the solids maintained a constant weight. 1 gram each of the refluxed sample and of the stirred sample were placed in 15 ml glass centrifuge tubes. Water was added to each tube in 0.1 ml increments and the mixture thoroughly shaken to ensure maximum solubilization. Incremental aliquots of water were added until complete solubilization was achieved as evidenced by the lack of any observable suspended solids in the solution. The final volume at which complete solubilization occurred in each sample was noted.

SMILES	% Solubility (solids (g)/ final volume (ml))	solubility in water	other results
C=C1C[C@@]23CC[C@H]4[C@@](C)(CCC[C@@]4(C)C(=O)O[C@@H]4O[C@H](CO)[C@@H](O)[C@H](O)[C@H]4O)[C@@H]2CC[C@]1(O[C@@H]1O[C@H](CO)[C@@H](O)[C@H](O[C@@H]2O[C@H](CO)[C@@H](O)[C@H](O)[C@H]2O)[C@H]1O[C@@H]1O[C@H](CO)[C@@H](O)[C@H](O)[C@H]1O)C3 [1 hour reflux in 100% ethanol, rebaudioside A]	40%		% Solubility (solids (g)/ final volume (ml)) (listed as 1 hour reflux in absolute ethanol): 40%
C=C1C[C@@]23CC[C@H]4[C@@](C)(CCC[C@@]4(C)C(=O)O[C@@H]4O[C@H](CO)[C@@H](O)[C@H](O)[C@H]4O)[C@@H]2CC[C@]1(O[C@@H]1O[C@H](CO)[C@@H](O)[C@H](O[C@@H]2O[C@H](CO)[C@@H](O)[C@H](O)[C@H]2O)[C@H]1O[C@@H]1O[C@H](CO)[C@@H](O)[C@H](O)[C@H]1O)C3 [15 minute stir in 100% ethanol, rebaudioside A]	33%		% Solubility (solids (g)/ final volume (ml)) (listed as 15 minute stirred wash in absolute ethanol): 33%
C=C1C[C@@]23CC[C@H]4[C@@](C)(CCC[C@@]4(C)C(=O)O[C@@H]4O[C@H](CO)[C@@H](O)[C@H](O)[C@H]4O)[C@@H]2CC[C@]1(O[C@@H]1O[C@H](CO)[C@@H](O)[C@H](O[C@@H]2O[C@H](CO)[C@@H](O)[C@H](O)[C@H]2O)[C@H]1O[C@@H]1O[C@H](CO)[C@@H](O)[C@H](O)[C@H]1O)C3 [Example 6, rebaudioside A]			solubility in water (at 25° C.): 59.0%
C=C1C[C@@]23CC[C@H]4[C@@](C)(CCC[C@@]4(C)C(=O)O[C@@H]4O[C@H](CO)[C@@H](O)[C@H](O)[C@H]4O)[C@@H]2CC[C@]1(O[C@@H]1O[C@H](CO)[C@@H](O)[C@H](O[C@@H]2O[C@H](CO)[C@@H](O)[C@H](O)[C@H]2O)[C@H]1O[C@@H]1O[C@H](CO)[C@@H](O)[C@H](O)[C@H]1O)C3 [No 100% ethanol treatment, rebaudioside A]	2%		% Solubility (solids (g)/ final volume (ml)) (listed as 99.6% Reb A purity product): 2%
C=C1C[C@@]23CC[C@H]4[C@@](C)(CCC[C@@]4(C)C(=O)O[C@@H]4O[C@H](CO)[C@@H](O)[C@H](O)[C@H]4O)[C@@H]2CC[C@]1(O[C@@H]1O[C@H](CO)[C@@H](O)[C@H](O[C@@H]2O[C@H](CO)[C@@H](O)[C@H](O)[C@H]2O)[C@H]1O[C@@H]1O[C@H](CO)[C@@H](O)[C@H](O)[C@H]1O)C3 [final product, rebaudioside A]		~33%	
C=C1C[C@@]23CC[C@H]4[C@@](C)(CCC[C@@]4(C)C(=O)O[C@@H]4O[C@H](CO)[C@@H](O)[C@H](O)[C@H]4O)[C@@H]2CC[C@]1(O[C@@H]1O[C@H](CO)[C@@H](O)[C@H](O[C@@H]2O[C@H](CO)[C@@H](O)[C@H](O)[C@H]2O)[C@H]1O[C@@H]1O[C@H](CO)[C@@H](O)[C@H](O)[C@H]1O)C3 [purified rebaudioside A, rebaudioside A]		about 33%	
